In ChEMBL document CHEMBL3774304, “Novel morpholin-3-one fused quinazoline derivatives as EGFR tyrosine kinase inhibitors” (Bioorg Med Chem Lett, 2016):

Tests used:
[1] = target: T1, Epidermal growth factor receptor (Homo sapiens, UniProt P00533)
Target sequence in this assay (P00533 whole entry): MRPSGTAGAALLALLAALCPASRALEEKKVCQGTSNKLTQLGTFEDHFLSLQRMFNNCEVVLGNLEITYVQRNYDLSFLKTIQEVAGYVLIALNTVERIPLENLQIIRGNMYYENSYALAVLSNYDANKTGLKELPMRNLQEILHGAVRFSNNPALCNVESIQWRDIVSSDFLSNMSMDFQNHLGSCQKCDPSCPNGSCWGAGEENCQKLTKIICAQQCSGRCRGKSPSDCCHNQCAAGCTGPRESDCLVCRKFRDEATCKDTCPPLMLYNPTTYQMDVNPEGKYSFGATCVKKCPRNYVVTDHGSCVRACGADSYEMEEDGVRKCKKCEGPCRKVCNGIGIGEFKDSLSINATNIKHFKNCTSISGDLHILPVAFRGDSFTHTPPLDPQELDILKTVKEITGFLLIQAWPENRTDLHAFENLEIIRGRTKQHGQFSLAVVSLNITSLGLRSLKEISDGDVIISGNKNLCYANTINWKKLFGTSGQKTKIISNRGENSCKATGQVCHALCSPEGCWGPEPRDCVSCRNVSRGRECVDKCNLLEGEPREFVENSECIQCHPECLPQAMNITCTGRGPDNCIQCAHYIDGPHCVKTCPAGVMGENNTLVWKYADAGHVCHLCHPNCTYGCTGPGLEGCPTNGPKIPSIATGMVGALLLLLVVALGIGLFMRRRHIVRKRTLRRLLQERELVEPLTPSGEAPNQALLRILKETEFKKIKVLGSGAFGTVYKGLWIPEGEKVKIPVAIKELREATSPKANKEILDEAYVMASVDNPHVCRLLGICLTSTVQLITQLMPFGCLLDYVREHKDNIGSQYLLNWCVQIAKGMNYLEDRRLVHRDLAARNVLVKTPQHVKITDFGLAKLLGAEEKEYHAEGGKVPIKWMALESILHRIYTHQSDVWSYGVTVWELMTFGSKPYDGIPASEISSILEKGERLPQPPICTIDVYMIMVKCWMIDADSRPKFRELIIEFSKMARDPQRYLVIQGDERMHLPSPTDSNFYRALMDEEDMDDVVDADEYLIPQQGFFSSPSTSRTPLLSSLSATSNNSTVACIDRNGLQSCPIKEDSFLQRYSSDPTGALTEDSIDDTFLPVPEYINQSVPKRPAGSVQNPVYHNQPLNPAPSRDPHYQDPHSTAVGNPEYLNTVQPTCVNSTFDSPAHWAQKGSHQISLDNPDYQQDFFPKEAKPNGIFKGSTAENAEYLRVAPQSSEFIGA
Description: Inhibition of wildtype EGFR (unknown origin) preincubated for 30 mins followed by addition of 2x ATP-substrate mixture measured after 1 hr by Kinase Glo luminescent kinase assay

NCI-H358 = experiment: cells; assay type: functional, cell-based; settings: Homo sapiens, NCI-H358, 48 h
Description: Antiproliferative activity against human NCI-H358 cells assessed as viable cells after 48 hrs by CCK8 assay

[2] = target: T1, Epidermal growth factor receptor; assay type: protein assay
Target sequence in this assay (P00533 25-1210 limits assumed, change not shown): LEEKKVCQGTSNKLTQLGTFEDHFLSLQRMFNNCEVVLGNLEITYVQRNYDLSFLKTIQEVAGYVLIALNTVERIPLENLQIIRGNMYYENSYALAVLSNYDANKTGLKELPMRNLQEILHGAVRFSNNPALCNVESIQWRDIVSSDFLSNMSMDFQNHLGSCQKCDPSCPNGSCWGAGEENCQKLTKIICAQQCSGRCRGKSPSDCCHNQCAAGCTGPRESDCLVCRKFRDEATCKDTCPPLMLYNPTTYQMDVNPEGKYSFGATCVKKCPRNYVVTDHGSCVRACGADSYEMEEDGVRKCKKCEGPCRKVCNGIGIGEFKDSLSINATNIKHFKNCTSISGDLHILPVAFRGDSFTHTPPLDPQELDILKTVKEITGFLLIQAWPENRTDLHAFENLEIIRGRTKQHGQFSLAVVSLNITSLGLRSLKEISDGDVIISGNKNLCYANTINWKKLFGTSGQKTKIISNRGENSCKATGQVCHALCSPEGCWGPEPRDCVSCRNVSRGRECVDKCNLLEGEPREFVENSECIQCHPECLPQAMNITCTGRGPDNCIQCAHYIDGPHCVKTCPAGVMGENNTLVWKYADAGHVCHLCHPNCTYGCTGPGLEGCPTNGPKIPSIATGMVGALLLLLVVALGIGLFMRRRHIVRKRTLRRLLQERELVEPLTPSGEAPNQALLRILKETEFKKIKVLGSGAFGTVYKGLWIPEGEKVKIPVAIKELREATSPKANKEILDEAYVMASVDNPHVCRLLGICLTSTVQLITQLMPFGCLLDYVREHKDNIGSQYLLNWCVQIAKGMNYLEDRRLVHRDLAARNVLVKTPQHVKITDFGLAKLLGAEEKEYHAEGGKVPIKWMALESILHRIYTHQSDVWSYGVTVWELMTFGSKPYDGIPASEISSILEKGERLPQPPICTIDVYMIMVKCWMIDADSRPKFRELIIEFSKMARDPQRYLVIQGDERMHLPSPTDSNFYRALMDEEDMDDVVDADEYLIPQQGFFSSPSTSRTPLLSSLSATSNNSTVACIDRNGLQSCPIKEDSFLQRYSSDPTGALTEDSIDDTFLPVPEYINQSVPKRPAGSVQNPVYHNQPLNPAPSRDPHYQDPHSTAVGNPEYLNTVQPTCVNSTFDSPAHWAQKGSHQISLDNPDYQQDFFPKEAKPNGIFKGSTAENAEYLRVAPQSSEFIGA
Description: Inhibition of EGFR-T790M/L858 mutant (unknown origin) preincubated for 30 mins followed by addition of 2x ATP-substrate mixture measured after 1 hr by Kinase Glo luminescent kinase assay

A549 = experiment: cells; assay type: functional, cell-based; settings: Homo sapiens, A549, 48 h
Description: Antiproliferative activity against human A549 cells assessed as viable cells after 48 hrs by CCK8 assay

IC50 [1] [nM] | Structure (SMILES) | also measured
211 | C#Cc1cccc(Nc2ncnc3cc4c(cc23)N(CCCN2CCCCC2)C(=O)CO4)c1 | –
434 | O=C1COc2cc3ncnc(Nc4ccc(F)cc4)c3cc2N1CCCN1CCOCC1 | –
163 | Cc1ccc(Nc2ncnc3cc4c(cc23)N(CCCN2CCOCC2)C(=O)CO4)cc1Cl | –
824 | O=C1COc2cc3ncnc(Nc4ccc(Br)cc4)c3cc2N1CCCN1CCOCC1 | –
594 | Cc1ccc(Nc2ncnc3cc4c(cc23)N(CCCN2CCOCC2)C(=O)CO4)cc1 | –
89.6 | O=C1COc2cc3ncnc(Nc4cccc(Br)c4)c3cc2N1CCCN1CCOCC1 | –
> 1000 | COc1cccc(Nc2ncnc3cc4c(cc23)N(CCCN2CCOCC2)C(=O)CO4)c1 | –
139 | C#Cc1cccc(Nc2ncnc3cc4c(cc23)N(CCCN2CCOCC2)C(=O)CO4)c1 | IC50 (NCI-H358): 13500 nM; IC50 [2]: 880 nM; IC50 (A549): 5580 nM
63.1 | O=C1COc2cc3ncnc(Nc4cccc(Cl)c4)c3cc2N1CCCN1CCOCC1 | –
829 | O=C1COc2cc3ncnc(Nc4cccc(C(F)(F)F)c4)c3cc2N1CCCN1CCOCC1 | –
138 | O=C1COc2cc3ncnc(Nc4ccc(F)c(Cl)c4)c3cc2N1CCCN1CCCCC1 | –
99 | O=C1COc2cc3ncnc(Nc4cccc(Br)c4)c3cc2N1CCCN1CCCCC1 | –
519 | O=C1COc2cc3ncnc(Nc4ccccc4)c3cc2N1CCCN1CCOCC1 | –
245 | O=C1COc2cc3ncnc(Nc4cccc(F)c4)c3cc2N1CCCN1CCOCC1 | –
> 1000 | COc1ccc(Nc2ncnc3cc4c(cc23)N(CCCN2CCOCC2)C(=O)CO4)cc1OC | –
187 | Cc1cccc(Nc2ncnc3cc4c(cc23)N(CCCN2CCOCC2)C(=O)CO4)c1 | –
116 | O=C1COc2cc3ncnc(Nc4cccc(Cl)c4)c3cc2N1CCCN1CCCCC1 | –
53.1 | O=C1COc2cc3ncnc(Nc4ccc(F)c(Cl)c4)c3cc2N1CCCN1CCOCC1 | IC50 (NCI-H358): 13500 nM; IC50 [2]: 336 nM; IC50 (A549): 7510 nM
456 | Cc1cccc(Nc2ncnc3cc4c(cc23)N(CCCN2CCCCC2)C(=O)CO4)c1 | –
354 | O=C1COc2cc3ncnc(Nc4ccc(Cl)cc4)c3cc2N1CCCN1CCOCC1 | –
